# Assay results as given in ChEMBL document CHEMBL1201862, “PubChem BioAssay data set” (2004).
#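 A five-concentration, 48-hour dose response in 96-well plates underlies each endpoint, interpolated linearly between surrounding concentrations. GI50 marks 50% less growth.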 The source made the active and inactive calls. Cut-off read from the data, not from the text of the source: active = GI50 up to about 1.1 µM and inactive = higher.
# How the values were obtained:
# Test in all cases: NCI tumour cell line growth inhibition, 48 h
# OVCAR-8 = test system: OVCAR-8
# SN12C = test system: SN12C
# NCI-H226 = test system: NCI-H226
# CCRF-CEM = test system: CCRF-CEM
# K562 = test system: K562
# NCI-H522 = test system: NCI-H522
# RPMI-8226 = test system: RPMI-8226
# HCT-15 = test system: HCT-15
# OVCAR-3 = test system: OVCAR-3
# SK-OV-3 = test system: SK-OV-3
# Hs-578T = test system: Hs-578T
# SNB-19 = test system: SNB-19
# UACC-257 = test system: UACC-257
# ACHN = test system: ACHN
# HCT-116 = test system: HCT-116
# SR = test system: SR
# A549 = test system: A549
# UO-31 = test system: UO-31
# A498 = test system: A498
SMILES,GI50 (OVCAR-8),GI50 (SN12C),GI50 (NCI-H226),GI50 (CCRF-CEM),GI50 (K562),GI50 (NCI-H522),GI50 (RPMI-8226),GI50 (HCT-15),GI50 (OVCAR-3),GI50 (SK-OV-3),GI50 (Hs-578T),GI50 (SNB-19),GI50 (UACC-257),GI50 (ACHN),GI50 (HCT-116),GI50 (SR),GI50 (A549),GI50 (UO-31),GI50 (A498)
COCCN1C(=O)C2c3[nH]c4ccccc4c3C3CCC(C(C)(C)C)CC3C2C1=O (stereo not given),20.7 µM (inactive),17.1 µM (inactive),22.1 µM (inactive),22.6 µM (inactive),18.9 µM (inactive),18 µM (inactive),15.2 µM (inactive),16.9 µM,17.5 µM (inactive),20.2 µM (inactive),17.2 µM (inactive),19.1 µM (inactive),16.7 µM (inactive),> 10 µM (inactive),16.4 µM (inactive),11.7 µM (inactive),19.1 µM (inactive),13.9 µM (inactive),–
CC(C)=C1C(=O)c2c(Cl)sc(Cl)c2C1=O,19.7 µM (inactive),20.7 µM (inactive),35.6 µM (inactive),26.1 µM (inactive),37.6 µM (inactive),16.4 µM (inactive),–,20.7 µM,29.3 µM (inactive),> 100 µM (inactive),32.8 µM (inactive),–,21.3 µM (inactive),21 µM (inactive),17.2 µM (inactive),27.2 µM (inactive),26.1 µM (inactive),23.4 µM (inactive),> 100 µM (inactive)
CC(C)(C)C1CCC(=O)/C(=C/CC2CC(=O)N(c3ccccc3)C(=O)C2)C1 (stereo not given),19.8 µM (inactive),17.5 µM (inactive),16.1 µM (inactive),–,19.5 µM (inactive),18.9 µM (inactive),18.7 µM (inactive),15.5 µM,23.1 µM (inactive),–,33.1 µM (inactive),22 µM (inactive),14.7 µM (inactive),19.9 µM (inactive),14.8 µM (inactive),10.3 µM (inactive),–,16.6 µM (inactive),24.5 µM (inactive)
CCOC(=O)c1ccc(Nc2nc3ccccc3n3cccc23)cc1,47.8 µM (inactive),12.8 µM (inactive),–,0.0217 µM (active),29.8 µM (inactive),88.1 µM (inactive),> 100 µM (inactive),21.8 µM,70 µM (inactive),27.4 µM (inactive),42.9 µM (inactive),52.5 µM (inactive),> 100 µM (inactive),72.8 µM (inactive),> 100 µM (inactive),8.97 µM (inactive),86.5 µM (inactive),> 100 µM (inactive),46 µM (inactive)
O=C(Nc1nn(C(=O)c2ccc(Cl)cc2)c(=O)s1)c1ccc(Cl)cc1,> 100 µM (inactive),> 100 µM (inactive),> 100 µM (inactive),76.4 µM (inactive),77.8 µM (inactive),> 100 µM (inactive),–,> 100 µM,> 100 µM (inactive),> 100 µM (inactive),> 100 µM (inactive),> 100 µM (inactive),> 100 µM (inactive),> 100 µM (inactive),> 100 µM (inactive),> 100 µM (inactive),> 100 µM (inactive),> 100 µM (inactive),> 100 µM (inactive)
CC(=O)C(=NNc1ccc(-n2c(C)nc3ccccc3c2=O)cc1)C(C)=O,> 100 µM (inactive),> 100 µM (inactive),80.2 µM (inactive),> 100 µM (inactive),> 100 µM (inactive),–,30 µM (inactive),> 100 µM,> 100 µM (inactive),> 100 µM (inactive),> 100 µM (inactive),> 100 µM (inactive),> 100 µM (inactive),> 100 µM (inactive),> 100 µM (inactive),> 100 µM (inactive),> 100 µM (inactive),> 100 µM (inactive),> 100 µM (inactive)
